Test results as given in patent US6031135A, “Trimethylsphingosine derivatives” (Oncomembrane, Inc., priority 1996, dated 2000).
“Also recorded” adds a separate entry of the source.

Assays:
platelets = experiment: platelet aggregation (aggregometer, thrombin or ADP); assay type: cell-based; details: background statement
Protocol: Platelets were isolated from platelet-rich plasma (purchased from the Oregon Red Cross, Portland, Oreg.). Contaminating erythrocytes were removed by centrifugation (80×g for 10 minutes). Platelets were obtained by centrifugation (300×g for 10 minutes), washed once in Tyrode buffer (pH 6.5) containing 22 mM trisodium citrate and 0.35% (w/v) BSA and resuspended in the same buffer to obtain a concentration of 1-2×10^9 platelets/ml. All procedures were performed at room temperature.
A suspension of platelets (about 3.5×10^8 /ml) in Tyrode buffer was preincubated with inhibitor compounds (H-7 [1-(5-isoquinolinylsulfonyl)-2-methylpiperazine, a synthetic protein kinase-C inhibitor purchased from Seikagaku America Inc., St. Petersburg, Fla.], Calphostin-C [a synthetic protein kinase-C inhibitor obtained from Dr. Saitoh, Kyowa Hakko Co., Ltd., Machida, Tokyo, Japan], sphingosine [purchased from Sigma, St. Louis, Mo.] and dimethylsphingosine and trimethylsphingosine [synthesized according to Igarashi et al., Biochem., 28, 6796, 1989]) followed by addition of thrombin or ADP (both purchased from Sigma). Platelet aggregation was evaluated by transmittance change using an aggregometer (Chrono-log Corp., Havertown, Pa.) equipped with a computer analyzer.

water solubility = assay type: physicochemical; details: particularly at physiologic pH
BL6 cells = experiment: tritiated thymidine incorporation, cell growth; assay type: cell-based, mouse; details: BL6 cells in vitro
Protocol: (§1) An in vitro assay relying on tritiated thymidine incorporation can be used to ascertain the effect of various compounds on cell proliferation. Briefly, tumor cells are seeded in flat bottom 96 well plates (Corning, N.Y.) at a concentration of 2×10^4 cells per well. The cells were cultured for 2 days in DMEM containing various concentrations of sphingoid which was added as a PBS solution. The medium then was supplemented with tritiated thymidine at a concentration of 0.5 μCi per well. Following a six hour incubation the cells were collected using the PHD Cell Harvester (Cambridge Technology, Cambridge, Mass.) and amounts of incorporated radioactivity were determined after adding a suitable cell lysing agent and scintillation cocktail, such as ScintiVerse BD (Fisher Scientific, Fairlawn, Calif.) which performs both functions.
(§2) Certain cancer cells show a higher metastatic potential and invasive capability than others. For example, in the mouse, the BL6 and F10 melanoma cell lines are highly metastatic and invasive. On the other hand, the F1 variant is much less metastatic and invasive (I. R. Hart et al., Amer. J. Pathol., 97, 587-592 (1979); G. Poote et al., Cancer Res. 42, 2770-2778 (1982); F1 and F10 clones from ATCC CRL 6323, and CRL 6475, respectively). BL6 and F1 cells were tested in vitro as described above. […]

F1 cells = experiment: tritiated thymidine incorporation, cell growth; assay type: cell-based, mouse; details: F1 cells in vitro
Protocol: as §1, §2

GMP-140 = GMP-140 expression in platelets (flow cytometry with mAb AC1.2); assay type: cell-based; details: platelets preincubated with compound; thrombin or PMA activation
Protocol: GMP-140 expression was determined by (i) flow cytometry with mAb AC1.2, which is directed to GMP-140 and obtained from Dr. Furie (Tufts Univ. Sch. Med., Boston, Mass.) and (ii) adhesion of HL60 cells on platelet-coated solid phase.
A suspension of platelets (1×10^8 /ml) in Tyrode buffer was preincubated with inhibitor at pH 7.2, 37° C., for 5 minutes, then supplemented with activator, either thrombin (final concentration 1 U/ml) or phorbol 12-myristate 13-acetate (PMA) (final concentration 10^-7 M), and then the mixture was incubated at 37° C. for 10 minutes. Platelets were fixed with an equal volume of 2% (w/v) paraformaldehyde in PBS and washed 2 times with PBS containing 1% (w/v) BSA.
The paraformaldehyde-fixed platelets were incubated with 50 μl of mAb AC1.2 (2.5 μg/ml) at room temperature for 30 minutes. […]
The platelets were analyzed in an Epics flow cytometer (Coulter Corp.) with suitable gating. To calculate the inhibitory effect of various reagents, the mean fluorescence intensity of resting platelets (obtained on incubation of platelets without activator) was subtracted from the value for the activated platelet sample.

HL60 cells = experiment: HL60 adhesion on activated platelet-coated solid phase; assay type: cell-based, human; details: thrombin-stimulated and PMA-stimulated platelets
Protocol: HL60 (a human promylelocytic cell line available from the ATCC under accession number CCL 240) adhesion on resting or activated platelet-coatedsolid phase was evaluated as follows. Each well of a 48-well plate (Costar Scientific, Cambridge, Mass.) was filled with a poly-L-lysine solution (100 μg/ml in PBS) and incubated for 1 hour. Each well then was washed with PBS and then 150 μl of PBS containing 6×10^7 resting or activated platelets were added to each well and the plate was incubated for 1 hour. Plates were centrifuged (300×g for 7 minutes) and incubated a further 30 minutes at room temperature. Bound platelets were fixed by addition of 0.1% (w/v) glutaraldehyde in PBS for 2 minutes at 4° C. Each well was washed with 10 mM glycine in PBS and plates were incubated with 5% (w/v) BSA containing 0.1% (w/v) sodium azide, 10 mM glycine in PBS for 1 hour at room temperature.

neutrophils [1] = experiment: PMA-dependent O2 consumption of neutrophils; assay type: cell-based, human
neutrophils [2] = experiment: phagokinetic activity of neutrophils on gold sol-coated plates; assay type: cell-based, human
Excerpt: The phagokinetic activity of neutrophils on gold sol-coated plates can be determined by a technique essentially as taught in Albrecht-Buehler (Cell, 11, 395, 1977). […] The TMS-dependent inhibitory effect is reversed completely when the culture medium is replaced with TMS-free medium. Thus, the inhibitory effect of TMS on phagokinetic activity is not dependent on cytotoxicity.

[3] = system: 47 kDa and 65 kDa proteins; experiment: PMA-stimulated protein phosphorylation in 32P-labeled neutrophils; assay type: cell-based, human; details: neutrophils pre-incubated with 15-45 μM, then 1.5 μM PMA
Protocol: Excess unbound components were removed by centrifugation and the pellets were resuspended in the same buffer, repeating twice. The cells then were divided into 7 treatment groups, each containing ≈1×10^7 cells in a total volume of 0.4 ml. TMS, SPN or DMS was added to a suspension and incubated at 37° C. for 10 min, followed by addition of PMA to a final concentration of 1.5 μM. Two minutes later, the reaction was terminated by adding 0.1 ml of Laemmli sample buffer and 20 mM EDTA, followed by heating at 100° C. for 5 min. Aliquots were separated through 10% sodium dodecyl sulfate gels using known procedures. ^32 P incorporation was visualized by autoradiography.

CCCCCCCCCCCCC/C=C/C(O)C(CO)[N+](C)(C)C (stereo not drawn) [TMS, N,N,N-trimethylsphingosine]
Platelet aggregation and associated ATP secretion (platelets): inhibited strongly
water solubility (water solubility): highly water soluble
inhibiting cell growth (BL6 cells): more effective than DMS and sphingosine
inhibiting cell growth (F1 cells): more effective than DMS and sphingosine
GMP-140 expression (GMP-140): down-regulated or blocked; also recorded: inhibits GMP-140 expression
HL60 cell binding (HL60 cells): inhibited strongly
PMA-dependent enhancement of O2 consumption (neutrophils [1]): inhibited strongly
Phagokinetic activity (neutrophils [2]): suppressed significantly
phosphorylation of 47 kDa and 65 kDa proteins [3]: diminished significantly; also recorded: had an affect on phosphorylation
